Assay results as given in article PMC12388523, “Flavonoids and Sesquiterpene Lactones from Lychnophora ericoides (Arnica-Do-Cerrado) and Their In Vitro Effects on Multiple Myeloma and Acute Myeloid Leukemia” (Metabolites, 2025).
pIC50: −log10 of the molar value.

Key:
[1] = tested on: HS-5 cells; set-up: method as in PMID 36768497; conditions: cited from earlier work
[2] = tested on: MOLM-13 cells; experiment: Proliferation, [3H]-thymidine uptake, MOLM-13; format: cell-based; conditions: for pIC50: Homo sapiens, MOLM-13, 72 h, 95% confidence interval in brackets, read-out: IC50 inhibition of proliferation
Procedure: [The source words this procedure for another cell line and reports this cell line under the same test.] (§1) Acute myeloid leukemia cell line HL-60 and multiple myeloma cell lines AMO-1 and KMS-12-PE were obtained from the German Collection of Microorganisms and Cell Cultures (DSMZ), Braunschweig, Germany, and non-tumorigenic stromal cell line HS-5 was acquired from the American Type Culture Collection (ATCC, Manassas, VA, USA). All cell lines were cultured in RPMI 1640 medium without phenol red (Pan Biotech, Aidenbach, Germany), supplemented with 2 mM glutamine, 100 U/mL penicillin, 100 µg/mL streptomycin (Sigma-Aldrich, St. Louis, MO, USA), and 10% fetal bovine serum (FBS Maximus, Catus Biotech GmbH, Tutzing, Germany) at 37 °C in a humidified atmosphere of 5% CO2/95% air. Cells were fed twice weekly. Logarithmically growing cells were resuspended at 1 × 10^5 cells/mL, plated in triplicate in round-bottom 96-well plates (100 µL per well; Falcon, Becton Dickinson, Franklin Lakes, NJ, USA), and incubated at 37 °C in 5% CO2/95% air for 2 h. Subsequently, the compounds were adjusted in the cell culture medium to reach the final concentrations in a total volume of 150 µL and incubated for an additional 72 h. Cell proliferation was assessed by [^3H]-thymidine uptake. Each well was exposed to 2 µCi [^3H]-thymidine (Hartmann Analytic, Braunschweig, Germany) during the final 12–16 h of incubation. Cells were harvested using a semi-automated device, and [^3H]-thymidine incorporation (expressed in counts per minute, cpm) was measured with a scintillation counter (MicroBeta TriLux, PerkinElmer, Waltham, MA, USA). Metabolic activity was assessed by resazurin staining. Resazurin (Carl Roth, Karlsruhe, Germany) was dissolved in distilled water at a concentration of 0.1 mg/mL, and 15 µL of this solution was added to each well, followed by a 2 h incubation at 37 °C. Relative fluorescence units (RFUs) were measured using a Synergy H1 plate reader equipped with a 560 nm excitation/590 nm emission filter set (BioTek; Agilent, Santa Clara, CA, USA). Proliferation and metabolic activity in the absence of compounds were defined as 100% (control), and the values for compound-treated samples were expressed as percentages relative to the control. Selectivity indices were calculated by dividing the IC50 value of each compound against HS-5 cells through the IC50 values against the investigated cell lines.
(§2) The Wilcoxon Rank Sum Test was used to analyze proliferation and metabolic activity in the absence and presence of varying compound concentrations (NCSS 2007 software, version 07.1.2, Kaysville, UT, USA). A p-value < 0.05 was considered statistically significant. IC50 values were calculated using GraphPad Prism 10.1.2. This software reports 95% confidence intervals instead of standard errors. […] Nonetheless, the figures clearly illustrate the IC50 values due to the narrow concentration range tested.

[3] = tested on: AMO-1 cells; experiment: Proliferation, [3H]-thymidine uptake, AMO-1; format: cell-based; conditions: for pIC50: AMO-1, 72 h, 95% confidence interval in brackets, read-out: IC50 inhibition of proliferation; for Selectivity index (proliferation): IC50 HS-5 / IC50 AMO-1
Procedure: as §1, §2

[4] = tested on: HS-5 cells; experiment: Proliferation, [3H]-thymidine uptake, non-malignant HS-5; format: cell-based; conditions: HS5; HS-5 (non-malignant), 72 h, 95% confidence interval in brackets; read-out: IC50 inhibition of proliferation
Procedure: as §1, with “Subsequently, the compounds were adjusted in the cell culture medium to reach the final concentrations in a total volume of 150 µL and incubated for an additional 72 h.” left out, “Each well was exposed to 2 µCi [^3H]-thymidine (Hartmann Analytic, Braunschweig, Germany) during the final 12–16 h of incubation.” left out, “Resazurin (Carl Roth, Karlsruhe, Germany) was dissolved in distilled water at a concentration of 0.1 mg/mL, and 15 µL of this solution was added to each well, followed by a 2 h incubation at 37 °C.” left out
(§3) The Wilcoxon Rank Sum Test was used to analyze proliferation and metabolic activity in the absence and presence of varying compound concentrations (NCSS 2007 software, version 07.1.2, Kaysville, UT, USA). […] IC50 values were calculated using GraphPad Prism 10.1.2. […]

[5] = tested on: AMO-1 cells; experiment: Metabolic activity, resazurin staining, AMO-1; format: cell-based; conditions: for pIC50: Homo sapiens, AMO1, AMO-1, 72 h, resazurin, 95% confidence interval in brackets, read-out: IC50 inhibition of metabolic activity; for Selectivity index (metabolic activity): IC50 HS-5 / IC50 AMO-1
Procedure: as §1, §2
(§4) Proliferation inhibition often leads to cell death. Therefore, the cytotoxic activity of the compounds was further evaluated using a modified 3-(4,5-dimethylthiazol-2-yl)-2,5-diphenyltetrazolium bromide (MTT) assay, the resazurin (Alamar Blue) assay. Metabolically active cells reduce the non-fluorescent dye resazurin to the fluorescent dye resorufin via mitochondrial reductase activity, which correlates with cell viability. In the first step the metabolic activity of the four isolated flavonoids was investigated, showing a dose-dependent reduction, but to a much lower extent than in the proliferation assays (Table A2). In fact, only 7,3′,4′-trimethoxymyricetin (2) inhibited the metabolic activity of all four cell lines by more than 50% at a concentration of 100 µM.

[6] = tested on: BC cell line; set-up: method as in PMID 17089326; conditions: cited from earlier work
[7] = tested on: KMS-12-PE cells; experiment: Metabolic activity, resazurin staining, KMS-12-PE; format: cell-based; conditions: for pIC50: Homo sapiens, KMS-12-PE, 72 h, resazurin, 95% confidence interval in brackets, read-out: IC50 inhibition of metabolic activity; for Selectivity index (metabolic activity): IC50 HS-5 / IC50 KMS-12-PE
Procedure: as §1, §2, §4

[8] = tested on: KMS-12-PE cells; experiment: Proliferation, [3H]-thymidine uptake, KMS-12-PE; format: cell-based; conditions: for pIC50: KMS-12-PE, 72 h, 95% confidence interval in brackets, read-out: IC50 inhibition of proliferation; for Selectivity index (proliferation): IC50 HS-5 / IC50 KMS-12-PE
Procedure: as §1, §2

[9] = tested on: HS-5 cells; experiment: Metabolic activity, resazurin staining, non-malignant HS-5; format: cell-based; conditions: HS5, HS-5 (non-malignant), 72 h, 95% confidence interval in brackets, read-out: IC50 inhibition of metabolic activity
Procedure: as §1, with “Subsequently, the compounds were adjusted in the cell culture medium to reach the final concentrations in a total volume of 150 µL and incubated for an additional 72 h.” left out, “Each well was exposed to 2 µCi [^3H]-thymidine (Hartmann Analytic, Braunschweig, Germany) during the final 12–16 h of incubation.” left out, “Resazurin (Carl Roth, Karlsruhe, Germany) was dissolved in distilled water at a concentration of 0.1 mg/mL, and 15 µL of this solution was added to each well, followed by a 2 h incubation at 37 °C.” left out
as §3

[10] = tested on: KB cell line; set-up: method as in PMID 17089326; conditions: cited from earlier work
[11] = tested on: HL-60 cells; experiment: Proliferation, [3H]-thymidine uptake, HL-60; format: cell-based; conditions: for pIC50: Homo sapiens, HL-60, 72 h, 95% confidence interval in brackets, read-out: IC50 inhibition of proliferation
Procedure: as §1, §2

[12] = tested on: HL-60 cells; experiment: Metabolic activity, resazurin staining, HL-60; format: cell-based; conditions: for pIC50: Homo sapiens, HL-60, 72 h, resazurin, 95% confidence interval in brackets, read-out: IC50 inhibition of metabolic activity; for Selectivity index (metabolic activity): IC50 HS-5 / IC50 HL-60
Procedure: as §1, §2, §4

[13] = tested on: MOLM-13 cells; experiment: Metabolic activity, resazurin staining, MOLM-13; format: cell-based; conditions: for pIC50: Homo sapiens, MOLM-13, 72 h, resazurin, 95% confidence interval in brackets, read-out: IC50 inhibition of metabolic activity; for Selectivity index (metabolic activity): IC50 HS-5 / IC50 MOLM-13
Procedure: [The source words this procedure for another cell line and reports this cell line under the same test.] as §1, §2, §4

[14] = tested on: NF-κB p65; set-up: method as in PMID 22685350; conditions: read-out: concentration inhibiting NF-κB p65; cited from earlier work
[15] = tested on: human colon cancer cell line HT-29; set-up: method as in PMID 22685350; conditions: cited from earlier work
[16] = tested on: KMS-12-PE; conditions: 10 nM; cited from earlier work
[17] = tested on: KMS-12-BM; set-up: method as in PMID 20088798; conditions: sister cell line of KMS-12-PE, read-out: IC50 inhibition of proliferation; cited from earlier work
[18] = tested on: other MM cell lines; set-up: method as in PMID 20088798; conditions: cited from earlier work

SMILES: N.N.[Cl][Pt][Cl] [Cisplatin]
- concentration needed to inhibit HS-5 cells [1]: above 1 µM

SMILES: C=C1C(=O)O[C@@H]2/C=C(/CO)C3=CC(=O)[C@@](C)(C[C@H](OC(=O)/C(C)=C\C)[C@@H]12)O3 [Compound 6, centratherin]
- pIC50 [2]: 5.96
- Selectivity index (proliferation) ([2]; IC50 HS-5 / IC50 MOLM-13): 2.2
- pIC50 ([3]; Homo sapiens, AMO1, 72 h): 5.66
- Selectivity index (proliferation) [3]: 1.1
- pIC50 [4]: 5.60
- pIC50 [5]: 5.62
- Selectivity index (metabolic activity) [5]: 1.9
- pIC50 [6]: > 6.52
- pIC50 [7]: 5.57
- Selectivity index (metabolic activity) [7]: 1.6
- pIC50 ([8]; Homo sapiens): 5.66
- Selectivity index (proliferation) [8]: 1.4
- pIC50 [8]: 5.74
- pIC50 [9]: 5.35
- pIC50 [10]: > 6.52
- pIC50 [11]: 5.92
- Selectivity index (proliferation) ([11]; IC50 HS-5 / IC50 HL-60): 2.1
- pIC50 [12]: 5.72
- Selectivity index (metabolic activity) [12]: 2.4
- pIC50 [13]: 5.89
- Selectivity index (metabolic activity) [13]: 3.5

SMILES: C=C1C(=O)O[C@@H]2/C=C(/C)C3=CC(=O)[C@@](C)(C[C@H](OC(=O)/C(C)=C\C)[C@@H]12)O3 [Compound 7, lychnopholide]
- pIC50 [2]: 5.85
- pIC50 [3]: 5.66
- pIC50 ([3]; Homo sapiens, AMO1, 72 h): 5.74
- Selectivity index (proliferation) [3]: 2.0
- pIC50 [4]: 5.37
- pIC50 [5]: 5.47
- Selectivity index (metabolic activity) [5]: 1.4
- pIC50 [14]: 5.54
- pIC50 [7]: 5.40
- Selectivity index (metabolic activity) [7]: 1.2
- pIC50 ([8]; Homo sapiens): 5.59
- Selectivity index (proliferation) [8]: 1.7
- pIC50 [9]: 5.31
- pIC50 [11]: 5.89
- pIC50 [15]: 5.85
- pIC50 [12]: 5.54
- Selectivity index (metabolic activity) [12]: 1.7
- pIC50 [13]: 5.74
- Selectivity index (metabolic activity) [13]: 2.8

SMILES: COc1cccc2c1C(=O)c1c(O)c3c(c(O)c1C2=O)C[C@@](O)(C(=O)CO)C[C@@H]3O[C@H]1C[C@H](N)[C@H](O)[C@H](C)O1 [doxorubicin]
- proliferation inhibited to [16]: 45.5%

SMILES: Nc1cccc2c1CN(C1CCC(=O)NC1=O)C2=O (centres unmarked) [lenalidomide]
- pIC50 [17]: 7.24
- IC50 concentrations (in words) [18]: high µM range
